Measurements as given in patent US4822790A, “1-Sulfo-2-oxoazetidine derivatives and their production” (Takeda Chemical Industries, Ltd., priority 1980, dated 1989).
Values belong to the compound of their own block, whether it stands above or below them.

Legend:
[1] = tested on: Pseudomonas aeruginosa U 31; experiment: Antibacterial test (MIC), Pseudomonas aeruginosa U 31; type: cell-based
From the text: (§1) The following is media and compounds employed in the antibacterial test.
(§2) TSA=Trypticase soy agar [Baltimore Biologicals (U.S.A.)]
(§3) B-TSA=Blood trypticase soy agar

[2] = tested on: Corynebacterium diphtheriae Toronto; experiment: Antibacterial test (MIC), Corynebacterium diphtheriae Toronto; type: cell-based
From the text: as §1, §2, §3

[3] = tested on: Acinetobacter calcoaceticus IFO 13006; experiment: Antibacterial test (MIC), Acinetobacter calcoaceticus IFO 13006; type: cell-based
From the text: as §1, §2, §3

[4] = tested on: Staphylococcus aureus 308A-1; experiment: Antibacterial test (MIC), Staphylococcus aureus 308A-1; type: cell-based
From the text: as §1, §2, §3

[5] = tested on: Proteus vulgaris IFO 3988; experiment: Antibacterial test (MIC), Proteus vulgaris IFO 3988; type: cell-based; conditions: for MIC: Proteus vulgaris, IFO3988, read-out: Minimum inhibitory concentration (MIC)
From the text: as §1, §2, §3

[6] = tested on: Proteus morganii IFO 3168; experiment: Antibacterial test (MIC), Proteus morganii IFO 3168; type: cell-based
From the text: as §1, §2, §3

[7] = tested on: Streptococcus pyogenes E-14; experiment: Antibacterial test (MIC), Streptococcus pyogenes E-14; type: cell-based
From the text: as §1, §2, §3

[8] = tested on: Staphylococcus aureus FDA209P; experiment: Antibacterial test (MIC), Staphylococcus aureus FDA209P; type: cell-based
From the text: as §1, §2, §3

Escherichia coli 0-111 = experiment: Antibacterial test (MIC), Escherichia coli 0-111; type: cell-based; conditions: medium TSA; for MIC: Escherichia coli, 0111, read-out: Minimum inhibitory concentration (MIC)
From the text: as §1, §2, §3

[9] = tested on: Escherichia coli NIHJ JC-2; experiment: Antibacterial test (MIC), Escherichia coli NIHJ JC-2; type: cell-based
From the text: as §1, §2, §3

[10] = tested on: Streptococcus faecium IFO 3128; experiment: Antibacterial test (MIC), Streptococcus faecium IFO 3128; type: cell-based
From the text: as §1, §2, §3

[11] = tested on: Streptococcus pyogenes S-8; experiment: Antibacterial test (MIC), Streptococcus pyogenes S-8; type: cell-based
From the text: as §1, §2, §3

Klebsiella pneumoniae DT = experiment: Antibacterial test (MIC), Klebsiella pneumoniae DT; type: cell-based; conditions: for MIC: Klebsiella pneumoniae, read-out: Minimum inhibitory concentration (MIC)
From the text: as §1, §2, §3

[12] = tested on: Citrobacter freundii IFO 12681; experiment: Antibacterial test (MIC), Citrobacter freundii IFO 12681; type: cell-based
From the text: as §1, §2, §3

[13] = tested on: Proteus mirabilis IFO 3849; experiment: Antibacterial test (MIC), Proteus mirabilis IFO 3849; type: cell-based
From the text: as §1, §2, §3

[14] = tested on: Streptococcus pneumoniae Type I; experiment: Antibacterial test (MIC), Streptococcus pneumoniae Type I; type: cell-based
From the text: as §1, §2, §3

[15] = tested on: Bordetella bronchiseptica Sagami; experiment: Antibacterial test (MIC), Bordetella bronchiseptica Sagami; type: cell-based
From the text: as §1, §2, §3

[16] = tested on: Streptococcus mitis America; experiment: Antibacterial test (MIC), Streptococcus mitis America; type: cell-based
From the text: as §1, §2, §3

[17] = tested on: Enterobacter cloacae IFO 12937; experiment: Antibacterial test (MIC), Enterobacter cloacae IFO 12937; type: cell-based
From the text: as §1, §2, §3

Escherichia coli T-7 = experiment: Antibacterial test (MIC), Escherichia coli T-7; type: cell-based; conditions: medium TSA
From the text: as §1, §2, §3

[18] = tested on: Serratia marcescens IFO 12648; experiment: Antibacterial test (MIC), Serratia marcescens IFO 12648; type: cell-based
From the text: as §1, §2, §3

Candida albicans TA = experiment: Antibacterial test (MIC), Candida albicans TA; type: cell-based
From the text: as §1, §2, §3

[19] = tested on: Staphylococcus aureus 1840; experiment: Antibacterial test (MIC), Staphylococcus aureus 1840; type: cell-based
From the text: as §1, §2, §3

[20] = tested on: Pseudomonas aeruginosa IFO 3455; experiment: Antibacterial test (MIC), Pseudomonas aeruginosa IFO 3455; type: cell-based
From the text: as §1, §2, §3

[21] = molecular target: T1, β-lactamase produced by Enterobacter cloacae PN 1282 (Enterobacter cloacae, UniProt P05364); experiment: Inhibitor concentration required to inhibit the β-lactamase (cephalosporinase) activity by 50%, micro-iodometric method; type: biochemical; conditions: 0.05M phosphate buffer (pH 7), 30° C., 10 min preincubation, cephalothin 0.1 mM, read-out: I50 (inhibitor concentration required to inhibit the enzyme activity by 50%) (converted)
T1 construct: cephalothin substrate, micro-iodometric
Description: "Determination of the inhibitor concentration required to inhibit the enzyme activity by 50%"
The β-lactamase produced by Enterobacter cloacae PN 1282 is used as a typical example of cephalosporinase. The β-lactamase is incubated in 0.05M phosphate buffer (pH 7) with an appropriate dilution of an inhibitor preparation at 30° C. for 10 minutes. Cephalothin is then added in an amount sufficient to produce a final concentration of 0.1 mM, and the enzymatic reaction is allowed to proceed for 10 minutes. The enzyme activity is determined by the micro-iodometric method [Journal of general Microbiology, vol. 33, page 121 (1963)]. Hereinafter, the inhibitor concentration required to inhibit the enzyme activity by 50% is expressed as I50.

[22] = tested on: Pseudomonas morganii IFO 3168; experiment: Antibacterial test (MIC), Pseudomonas morganii IFO 3168; type: cell-based; conditions: IFO3168, medium TSA, read-out: Minimum inhibitory concentration (MIC)
From the text: as §1, §2, §3

T1 sequence (P05364 21-381): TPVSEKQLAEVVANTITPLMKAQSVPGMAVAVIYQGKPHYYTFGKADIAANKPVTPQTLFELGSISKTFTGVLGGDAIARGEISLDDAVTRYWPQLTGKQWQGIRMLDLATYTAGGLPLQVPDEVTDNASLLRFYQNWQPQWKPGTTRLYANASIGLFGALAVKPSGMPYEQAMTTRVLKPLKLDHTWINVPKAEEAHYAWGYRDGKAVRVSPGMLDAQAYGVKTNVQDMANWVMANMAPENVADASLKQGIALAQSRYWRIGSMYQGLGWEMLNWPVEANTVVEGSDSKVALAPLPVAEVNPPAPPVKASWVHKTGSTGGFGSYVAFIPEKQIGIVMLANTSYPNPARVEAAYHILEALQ

IC50 [21]: 406 nM
Structure (SMILES): CS[C@@H]1[C@H](NC(=O)C(=NOC(C)(C)C(=O)O)c2csc(N)n2)C(=O)N1S(=O)(=O)O

IC50 [21]: 759 nM
Structure (SMILES): CON=C(C(=O)N[C@@H]1C(=O)N(S(=O)(=O)O)[C@@H]1SC)c1csc(N)n1

Further lines, the compound ahead of its results:

Structure (SMILES): CCN1CCN(C(=O)NC(C(=O)NC2CN(S(=O)(=O)[O-])C2=O)c2cccs2)C(=O)C1=O.[Na+] (racemic) [Compound E, Sodium 3-[DL-2-(4-ethyl-2,3-dioxo-1-piperazinocarboxamido)-2-thienylacetamido]-2-oxoazetidine-1-sulfonate]
Minimum inhibitory concentration (MIC) ([1]; medium TSA): > 100 µg/mL | Minimum inhibitory concentration (MIC) ([2]; medium B-TSA): 0.39 µg/mL | Minimum inhibitory concentration (MIC) ([3]; medium TSA): 50 µg/mL | Minimum inhibitory concentration (MIC) ([4]; medium TSA): 6.25 µg/mL | Minimum inhibitory concentration (MIC) ([5]; medium TSA): < 0.1 µg/mL | Minimum inhibitory concentration (MIC) ([6]; medium TSA): 12.5 µg/mL | Minimum inhibitory concentration (MIC) ([7]; medium B-TSA): 1.56 µg/mL | Minimum inhibitory concentration (MIC) ([8]; medium B-TSA): 6.25 µg/mL | Minimum inhibitory concentration (MIC) ([8]; medium TSA): 6.25 µg/mL | Minimum inhibitory concentration (MIC) (Escherichia coli 0-111): 0.2 µg/mL | Minimum inhibitory concentration (MIC) ([9]; medium TSA): 1.56 µg/mL | Minimum inhibitory concentration (MIC) ([10]; medium B-TSA): > 100 µg/mL | Minimum inhibitory concentration (MIC) ([11]; medium B-TSA): 3.13 µg/mL | Minimum inhibitory concentration (MIC) (Klebsiella pneumoniae DT; medium TSA): 0.78 µg/mL | Minimum inhibitory concentration (MIC) ([12]; medium TSA): 3.13 µg/mL | Minimum inhibitory concentration (MIC) ([13]; medium TSA): 0.78 µg/mL | Minimum inhibitory concentration (MIC) ([14]; medium B-TSA): 3.13 µg/mL | Minimum inhibitory concentration (MIC) ([15]; medium B-TSA): > 100 µg/mL | Minimum inhibitory concentration (MIC) ([16]; medium B-TSA): 25 µg/mL | Minimum inhibitory concentration (MIC) ([17]; medium TSA): 3.13 µg/mL | Minimum inhibitory concentration (MIC) (Escherichia coli T-7): > 100 µg/mL | Minimum inhibitory concentration (MIC) ([18]; medium TSA): 3.13 µg/mL | Minimum inhibitory concentration (MIC) (Candida albicans TA; medium TSA): > 100 µg/mL | Minimum inhibitory concentration (MIC) ([19]; medium TSA): 25 µg/mL | Minimum inhibitory concentration (MIC) ([20]; medium TSA): 3.13 µg/mL

Structure (SMILES): CON=C(C(=O)NC1CN(S(=O)(=O)[O-])C1=O)c1csc(N)n1.[Na+] (stereo not shown) [Compound A, Sodium 3-[2-(2-amino-4-thiazolyl)-2-methoxyiminoacetamido]-2-oxoazetidine-1-sulfonate]
MIC ([1]; Pseudomonas aeruginosa, U31, read-out: Minimum inhibitory concentration (MIC)): > 100 µg/mL | MIC ([2]; Corynebacterium diphtheriae, read-out: Minimum inhibitory concentration (MIC)): 1.56 µg/mL | MIC ([3]; Acinetobacter calcoaceticus, IFO13006, read-out: Minimum inhibitory concentration (MIC)): 6.25 µg/mL | MIC ([4]; Staphylococcus aureus, 308A1, read-out: Minimum inhibitory concentration (MIC)): 25 µg/mL | MIC [5]: 1.56 µg/mL | MIC ([6]; Morganella morganii, IFO3168, read-out: Minimum inhibitory concentration (MIC)): 25 µg/mL | MIC ([7]; Streptococcus pyogenes, E14, read-out: Minimum inhibitory concentration (MIC)): 3.13 µg/mL | MIC ([8]; Staphylococcus aureus, FDA209P, read-out: Minimum inhibitory concentration (MIC)): 50 µg/mL | Minimum inhibitory concentration (MIC) ([8]; medium B-TSA): 50 µg/mL | MIC (Escherichia coli 0-111): 0.39 µg/mL | MIC ([9]; Escherichia coli, NIHJJC2, read-out: Minimum inhibitory concentration (MIC)): 0.78 µg/mL | MIC ([10]; Enterococcus faecium, IFO3128, read-out: Minimum inhibitory concentration (MIC)): > 100 µg/mL | MIC ([11]; Streptococcus pyogenes, S8, read-out: Minimum inhibitory concentration (MIC)): 3.13 µg/mL | MIC (Klebsiella pneumoniae DT): 0.78 µg/mL | MIC ([12]; Citrobacter freundii, IFO12681, read-out: Minimum inhibitory concentration (MIC)): 1.56 µg/mL | MIC ([13]; Proteus mirabilis, IFO3849, read-out: Minimum inhibitory concentration (MIC)): 6.25 µg/mL | MIC ([14]; Streptococcus pneumoniae, read-out: Minimum inhibitory concentration (MIC)): 12.5 µg/mL | MIC ([15]; Bordetella bronchiseptica, read-out: Minimum inhibitory concentration (MIC)): 100 µg/mL | MIC ([16]; Streptococcus mitis, read-out: Minimum inhibitory concentration (MIC)): 25 µg/mL | MIC ([17]; Enterobacter cloacae, IFO12937, read-out: Minimum inhibitory concentration (MIC)): > 100 µg/mL | MIC (Escherichia coli T-7; Escherichia coli, T7, read-out: Minimum inhibitory concentration (MIC)): > 100 µg/mL | MIC ([18]; Serratia marcescens, IFO12648, read-out: Minimum inhibitory concentration (MIC)): 12.5 µg/mL | MIC (Candida albicans TA; Candida albicans, read-out: Minimum inhibitory concentration (MIC)): > 100 µg/mL | MIC ([19]; Staphylococcus aureus, 1840, read-out: Minimum inhibitory concentration (MIC)): 100 µg/mL | MIC ([20]; Pseudomonas aeruginosa, IFO3455, read-out: Minimum inhibitory concentration (MIC)): 6.25 µg/mL

Structure (SMILES): CS[C@@H]1[C@H](NC(=O)c2c(-c3c(Cl)cccc3Cl)noc2C)C(=O)N1S(=O)(=O)O
IC50 [21]: 96.5 nM

Structure (SMILES): CCN1CCN(C(=O)N[C@@H](C(=O)NC2(OC)CN(S(=O)(=O)O)C2=O)c2ccccc2)C(=O)C1=O (single isomer, unassigned) [Compound C, Sodium 3-[D(-)-N-(4-ethyl-2,3-dioxo-1-piperazinocarbonyl)phenylglycinamido]-3-methoxy-2-oxoazetidine-1-sulfonate]
MIC [5]: 12.5 µg/mL | MIC (Escherichia coli 0-111): 12.5 µg/mL | MIC [22]: > 100 µg/mL | MIC (Klebsiella pneumoniae DT): 12.5 µg/mL

Structure (SMILES): CON=C(C(=O)N[C@@H]1C(=O)N(S(=O)(=O)O)[C@H]1Sc1ccccc1)c1csc(N)n1
IC50 [21]: 59 nM
